How the values were obtained:
Experiment in all cases: relative viability (nuclei count vs DMSO), 5 days (fraction); higher = more cells survive
AZD8055 + Tozasertib = compound: COc1ccc(-c2ccc3c(N4CCOC[C@@H]4C)nc(N4CCOC[C@@H]4C)nc3n2)cc1CO [AZD8055] + Cc1cc(Nc2cc(N3CCN(C)CC3)nc(Sc3ccc(NC(=O)C4CC4)cc3)n2)n[nH]1 [Tozasertib] (partner 0.1 µM)
Summary of the method: (§1)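 A single step with final 0.05% Triton X-100, 1% formaldehyde and 1 ug/ml Hoechst fixed the cells and stained nuclei 5 days after treatment. Lung cancer cell lines in 1536-well plates had been treated by pin tool the day after seeding with one drug alone or a fixed anchor-drug dose plus five library-drug doses (not always all listed) in √10 steps, and nuclei were counted on 4× images. Relative viability is the ratio of nuclei in treated wells to nuclei in vehicle wells, taken as the median of duplicate plates.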

AZD8055 + Foretinib = compound: COc1ccc(-c2ccc3c(N4CCOC[C@@H]4C)nc(N4CCOC[C@@H]4C)nc3n2)cc1CO [AZD8055] + COc1cc2c(Oc3ccc(NC(=O)C4(C(=O)Nc5ccc(F)cc5)CC4)cc3F)ccnc2cc1OCCCN1CCOCC1 [Foretinib] (partner 0.25 µM)
Summary of the method: as §1

AZD8055 + AZD7762 = compound: COc1ccc(-c2ccc3c(N4CCOC[C@@H]4C)nc(N4CCOC[C@@H]4C)nc3n2)cc1CO [AZD8055] + NC(=O)Nc1cc(-c2cccc(F)c2)sc1C(=O)N[C@H]1CCCNC1 [AZD7762] (partner 0.2 µM)
Summary of the method: as §1

AZD8055 + Luminespib = compound: COc1ccc(-c2ccc3c(N4CCOC[C@@H]4C)nc(N4CCOC[C@@H]4C)nc3n2)cc1CO [AZD8055] + CCNC(=O)c1noc(-c2cc(C(C)C)c(O)cc2O)c1-c1ccc(CN2CCOCC2)cc1 [Luminespib] (partner 0.01 µM)
Summary of the method: as §1

Cell Line	relative viability (AZD8055 + Tozasertib; first compound 0.01 µM)	relative viability (AZD8055 + Tozasertib; first compound 0.03162 µM)	relative viability (AZD8055 + Tozasertib; first compound 0.1 µM)	relative viability (AZD8055 + Tozasertib; first compound 0.3162 µM)	relative viability (AZD8055 + Tozasertib; first compound 1 µM)	relative viability (AZD8055 + Foretinib; first compound 0.01 µM)	relative viability (AZD8055 + Foretinib; first compound 0.03162 µM)	relative viability (AZD8055 + Foretinib; first compound 0.1 µM)	relative viability (AZD8055 + Foretinib; first compound 0.3162 µM)	relative viability (AZD8055 + Foretinib; first compound 1 µM)	relative viability (AZD8055 + AZD7762; first compound 0.01 µM)	relative viability (AZD8055 + AZD7762; first compound 0.03162 µM)	relative viability (AZD8055 + AZD7762; first compound 0.1 µM)	relative viability (AZD8055 + AZD7762; first compound 0.3162 µM)	relative viability (AZD8055 + AZD7762; first compound 1 µM)	relative viability (AZD8055 + Luminespib; first compound 0.01 µM)	relative viability (AZD8055 + Luminespib; first compound 0.03162 µM)	relative viability (AZD8055 + Luminespib; first compound 0.1 µM)	relative viability (AZD8055 + Luminespib; first compound 0.3162 µM)	relative viability (AZD8055 + Luminespib; first compound 1 µM)
NCI-H1793	0.299	0.219	0.154	0.136	0.145	0.457	0.35	0.222	0.189	0.183	0.379	0.264	0.197	0.145	0.127	0.151	0.156	0.146	0.132	0.149
NCI-H1915	0.533	0.433	0.46	0.387	0.35	1.12	1.04	1.01	0.574	0.527	0.777	0.48	0.686	0.425	0.454	0.777	0.727	0.598	0.5	0.322
NCI-H1944	0.243	0.253	0.206	0.171	0.166	1.04	0.793	0.648	0.409	0.321	0.455	0.453	0.393	0.268	0.202	0.866	0.573	0.483	0.277	0.222
NCI-H1975	0.804	0.619	0.375	0.189	0.178	0.86	0.73	0.459	0.284	0.24	0.732	0.636	0.466	0.328	0.348	0.2	0.155	0.186	0.149	0.147
NCI-H1993	0.55	0.534	0.518	0.47	0.526	0.696	0.584	0.51	0.503	0.577	0.646	0.377	0.402	0.366	0.516	0.74	0.593	0.497	0.402	0.471
NCI-H2085	0.775	0.759	0.703	0.388	0.338	0.945	0.919	0.602	0.278	0.329	0.994	0.848	0.706	0.409	0.362	0.447	0.387	0.294	0.21	0.281
NCI-H2087	0.276	0.242	0.2	0.189	0.162	1.04	0.857	0.676	0.461	0.315	1.37	1.36	1.33	0.654	0.478	0.171	0.163	0.138	0.124	0.141
NCI-H2126	0.844	0.829	0.687	0.427	0.375	1.32	1.05	0.91	0.575	0.593	1.03	1.07	0.902	0.587	0.508	0.921	0.884	0.484	0.308	0.312

— the supplement of paper PMC10307832
